Data taken from the NIST ThermoML archive (doi:10.1016/j.jct.2012.06.012).

Experiment: xn = mol fraction of the nth substance listed
Conditions: Liquid, Vibrating tube method

CCCCCCCCCC [decane] + CCO
Conditions	mass density [kg/m3]
313.09 K, 11000 kPa, x2 = 0.0937	723.62
313.09 K, 12000 kPa, x2 = 0.0937	724.43
313.09 K, 13000 kPa, x2 = 0.0937	725.25
313.09 K, 14000 kPa, x2 = 0.0937	726.06
313.09 K, 15000 kPa, x2 = 0.0937	726.84
313.09 K, 16000 kPa, x2 = 0.0937	727.61
313.09 K, 17000 kPa, x2 = 0.0937	728.37
313.09 K, 18000 kPa, x2 = 0.0937	729.11
313.09 K, 19000 kPa, x2 = 0.0937	729.84
313.09 K, 20000 kPa, x2 = 0.0937	730.54
313.11 K, 1000 kPa, x2 = 0.2507	717.71
313.11 K, 2000 kPa, x2 = 0.2507	718.61
313.11 K, 3000 kPa, x2 = 0.2507	719.5
313.11 K, 4000 kPa, x2 = 0.2507	720.38
313.11 K, 5000 kPa, x2 = 0.2507	721.25
313.11 K, 6000 kPa, x2 = 0.2507	722.07
313.11 K, 7000 kPa, x2 = 0.2507	722.9
313.11 K, 8000 kPa, x2 = 0.2507	723.74
313.11 K, 9000 kPa, x2 = 0.2507	724.57
313.11 K, 10000 kPa, x2 = 0.2507	725.41
313.11 K, 11000 kPa, x2 = 0.2507	726.25
313.11 K, 12000 kPa, x2 = 0.2507	727.08
313.11 K, 13000 kPa, x2 = 0.2507	727.91
313.11 K, 14000 kPa, x2 = 0.2507	728.72
313.11 K, 15000 kPa, x2 = 0.2507	729.52
313.11 K, 16000 kPa, x2 = 0.2507	730.3
313.11 K, 17000 kPa, x2 = 0.2507	731.07
313.11 K, 18000 kPa, x2 = 0.2507	731.81
313.11 K, 19000 kPa, x2 = 0.2507	732.55
313.11 K, 20000 kPa, x2 = 0.2507	733.26
322.98 K, 1000 kPa, x2 = 0.4963	715.95
322.98 K, 2000 kPa, x2 = 0.4963	716.92
322.98 K, 3000 kPa, x2 = 0.4963	717.88
322.98 K, 4000 kPa, x2 = 0.4963	718.83
322.98 K, 5000 kPa, x2 = 0.4963	719.75
322.98 K, 6000 kPa, x2 = 0.4963	720.66
322.98 K, 7000 kPa, x2 = 0.4963	721.56
322.98 K, 8000 kPa, x2 = 0.4963	722.48
322.98 K, 9000 kPa, x2 = 0.4963	723.39
322.98 K, 10000 kPa, x2 = 0.4963	724.3
322.98 K, 11000 kPa, x2 = 0.4963	725.2
322.98 K, 12000 kPa, x2 = 0.4963	726.08
322.98 K, 13000 kPa, x2 = 0.4963	726.98
322.98 K, 14000 kPa, x2 = 0.4963	727.85
322.98 K, 15000 kPa, x2 = 0.4963	728.71
322.98 K, 16000 kPa, x2 = 0.4963	729.56
322.98 K, 17000 kPa, x2 = 0.4963	730.39
322.98 K, 18000 kPa, x2 = 0.4963	731.19
322.98 K, 19000 kPa, x2 = 0.4963	731.99
322.98 K, 20000 kPa, x2 = 0.4963	732.78
322.99 K, 1000 kPa, x2 = 0.0937	707.2
322.99 K, 1000 kPa, x2 = 0.9014	745.03
322.99 K, 2000 kPa, x2 = 0.0937	708.15
322.99 K, 2000 kPa, x2 = 0.9014	746.04
322.99 K, 3000 kPa, x2 = 0.0937	709.09
322.99 K, 3000 kPa, x2 = 0.9014	747.05
322.99 K, 4000 kPa, x2 = 0.0937	710.01
322.99 K, 4000 kPa, x2 = 0.9014	748.04
322.99 K, 5000 kPa, x2 = 0.0937	710.92
322.99 K, 5000 kPa, x2 = 0.9014	749.01
322.99 K, 6000 kPa, x2 = 0.0937	711.82
322.99 K, 6000 kPa, x2 = 0.9014	749.97
322.99 K, 7000 kPa, x2 = 0.0937	712.7
322.99 K, 7000 kPa, x2 = 0.9014	750.92
322.99 K, 8000 kPa, x2 = 0.0937	713.57
322.99 K, 8000 kPa, x2 = 0.9014	751.88
322.99 K, 9000 kPa, x2 = 0.0937	714.44
322.99 K, 9000 kPa, x2 = 0.9014	752.84
322.99 K, 10000 kPa, x2 = 0.0937	715.32
322.99 K, 10000 kPa, x2 = 0.9014	753.79
322.99 K, 11000 kPa, x2 = 0.0937	716.18
322.99 K, 11000 kPa, x2 = 0.9014	754.74
322.99 K, 12000 kPa, x2 = 0.0937	717.04
322.99 K, 12000 kPa, x2 = 0.9014	755.67
322.99 K, 13000 kPa, x2 = 0.0937	717.9
322.99 K, 13000 kPa, x2 = 0.9014	756.6
322.99 K, 14000 kPa, x2 = 0.0937	718.73
322.99 K, 14000 kPa, x2 = 0.9014	757.52
322.99 K, 15000 kPa, x2 = 0.0937	719.56
322.99 K, 15000 kPa, x2 = 0.9014	758.41
322.99 K, 16000 kPa, x2 = 0.0937	720.37
322.99 K, 16000 kPa, x2 = 0.9014	759.31
322.99 K, 17000 kPa, x2 = 0.0937	721.18
322.99 K, 17000 kPa, x2 = 0.9014	760.18
322.99 K, 18000 kPa, x2 = 0.0937	721.95
322.99 K, 18000 kPa, x2 = 0.9014	761.04
322.99 K, 19000 kPa, x2 = 0.0937	722.72
322.99 K, 19000 kPa, x2 = 0.9014	761.88
322.99 K, 20000 kPa, x2 = 0.0937	723.46
322.99 K, 20000 kPa, x2 = 0.9014	762.71
